Activity calls are given as the source filed them.
Experiments:
[1] = HGIII-sPLA2 enzyme inhibition potency – biochemical, QFRET, IC50, dose response (AID 743457);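 further: green fluorescence rise as the enzyme cleaves BODIPY PC-A2 in liposomes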
[2] = toxicity toward HepG2 liver cells – cell-based, plate reader, cherry-pick, antagonist series, cytotoxicity control, dose response (AID 743416); format: functional
[3] = blockers of bursicon-stimulated LGR2 cAMP reporter – cell-based, HEK293, CRE-luciferase reporter, cherry pick, set 2, dose response (AID 743343); format: functional;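 further: transfected cells were stimulated with diluted bursicon conditioned medium after compound addition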
[4] = viability loss in HEK293 cells – cell-based, plate reader, cherry-picked samples, cytotoxicity control, dose response (AID 743446); format: functional
[5] = blockade of melanocortin 4 receptor signaling – cell-based, plate reader, cherry pick, counter-screen for LGR2 antagonist project, dose response (AID 743444); format: functional;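 further: transfected HEK 293 cells stimulated with alpha-MSH peptide; potency of inhibitors of the alpha-MSH evoked signal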
[6] = cAMP pathway inhibition in counterscreen cell line – TR-FRET cAMP detection, counter-screen for MC4R biased antagonist project, dose response (AID 602305); format: functional, cell-based;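 further: U2OS cells stimulated with forskolin near its EC80 as the cAMP inducer; potency is for inhibition of forskolin-stimulated cAMP signaling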
[7] = A549 cell cytotoxicity, dose response, cytotoxicity control, plate reader, cherry-pick, antagonist series (AID 743412); format: functional, cell-based
Melanocortin receptor 4 = Melanocortin receptor 4 (Homo sapiens, UniProt P32245); assay: inhibitors of MC4R cAMP signaling – cell-based, TR-FRET, biased antagonists, dose response (AID 602298); format: functional;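 further: antagonist potency against agonist-stimulated cAMP production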
Chain of Melanocortin receptor 4 (P32245 whole entry): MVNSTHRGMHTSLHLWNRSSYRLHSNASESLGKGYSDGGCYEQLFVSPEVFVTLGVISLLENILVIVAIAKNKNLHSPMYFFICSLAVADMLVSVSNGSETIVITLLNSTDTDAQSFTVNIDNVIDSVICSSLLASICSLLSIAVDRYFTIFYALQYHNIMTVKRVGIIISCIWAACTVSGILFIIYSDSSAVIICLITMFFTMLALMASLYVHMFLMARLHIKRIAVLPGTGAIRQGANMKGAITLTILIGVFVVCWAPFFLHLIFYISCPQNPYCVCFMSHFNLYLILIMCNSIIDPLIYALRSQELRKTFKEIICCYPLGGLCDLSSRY

cells = conditions: HEK293
[8] = viability loss in HepG2 hepatoma cells – cell-based, ATP luminescence, cherry-pick, activator set 2, cytotoxicity control, dose response (AID 1053143); format: functional
Nonstructural protein 1 = Nonstructural protein 1 (Influenza A virus, UniProt Q194T2); format: functional, Influenza A virus (A/California/07/2009(H1N1))
Chain of Nonstructural protein 1 (Q194T2 whole entry): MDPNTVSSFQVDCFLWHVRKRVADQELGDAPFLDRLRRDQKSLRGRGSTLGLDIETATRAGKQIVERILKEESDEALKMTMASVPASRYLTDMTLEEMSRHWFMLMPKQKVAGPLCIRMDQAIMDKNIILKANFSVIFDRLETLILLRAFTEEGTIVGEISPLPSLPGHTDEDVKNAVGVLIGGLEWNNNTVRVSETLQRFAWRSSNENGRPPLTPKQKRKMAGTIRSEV

[9] = target: Metabotropic glutamate receptor 3 (Rattus norvegicus, UniProt P31422); assay: inhibitors of rat mGlu3 Galpha15 signaling – TREx293 cells, calcium flux, mGlu3 NAM project, dose response (AID 651840); format: functional
Chain of Metabotropic glutamate receptor 3 (P31422 whole entry): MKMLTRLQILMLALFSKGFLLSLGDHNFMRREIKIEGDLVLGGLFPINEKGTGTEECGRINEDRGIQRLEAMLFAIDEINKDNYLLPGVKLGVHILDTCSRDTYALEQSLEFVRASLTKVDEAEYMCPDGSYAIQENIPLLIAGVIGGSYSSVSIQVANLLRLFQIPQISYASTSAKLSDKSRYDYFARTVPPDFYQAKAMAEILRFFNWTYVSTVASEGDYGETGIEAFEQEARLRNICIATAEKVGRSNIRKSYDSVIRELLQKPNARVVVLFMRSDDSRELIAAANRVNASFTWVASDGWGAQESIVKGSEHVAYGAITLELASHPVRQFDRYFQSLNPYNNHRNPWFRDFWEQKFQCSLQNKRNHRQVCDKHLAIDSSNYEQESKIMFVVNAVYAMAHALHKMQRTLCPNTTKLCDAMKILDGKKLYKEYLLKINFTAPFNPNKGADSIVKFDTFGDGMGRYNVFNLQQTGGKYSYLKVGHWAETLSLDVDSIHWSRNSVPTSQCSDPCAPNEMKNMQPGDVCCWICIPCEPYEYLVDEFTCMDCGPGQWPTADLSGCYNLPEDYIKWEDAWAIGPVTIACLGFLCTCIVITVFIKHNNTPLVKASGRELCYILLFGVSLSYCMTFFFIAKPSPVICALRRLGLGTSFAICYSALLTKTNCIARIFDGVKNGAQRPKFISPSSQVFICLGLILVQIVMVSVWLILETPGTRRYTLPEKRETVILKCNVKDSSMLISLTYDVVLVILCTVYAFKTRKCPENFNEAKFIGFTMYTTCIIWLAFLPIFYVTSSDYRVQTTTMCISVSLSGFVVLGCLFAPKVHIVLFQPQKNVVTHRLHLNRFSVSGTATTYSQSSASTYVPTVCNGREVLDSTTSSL

[10] = inhibition of ADAM10 peptide cleavage – biochemical, FRET peptide substrate, recombinant human ADAM10, selectivity assay for ADAM17 exosite inhibitor project, dose response (AID 743259);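 further: ADAM10 enzyme cleaving a FRET peptide substrate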
[11] = target: Disintegrin and metalloproteinase domain-containing protein 17 (Homo sapiens, UniProt P78536); assay: exosite inhibitors of ADAM17, dose response, biochemical (AID 743260)
Chain of Disintegrin and metalloproteinase domain-containing protein 17 (P78536 whole entry, the tested form may be a part): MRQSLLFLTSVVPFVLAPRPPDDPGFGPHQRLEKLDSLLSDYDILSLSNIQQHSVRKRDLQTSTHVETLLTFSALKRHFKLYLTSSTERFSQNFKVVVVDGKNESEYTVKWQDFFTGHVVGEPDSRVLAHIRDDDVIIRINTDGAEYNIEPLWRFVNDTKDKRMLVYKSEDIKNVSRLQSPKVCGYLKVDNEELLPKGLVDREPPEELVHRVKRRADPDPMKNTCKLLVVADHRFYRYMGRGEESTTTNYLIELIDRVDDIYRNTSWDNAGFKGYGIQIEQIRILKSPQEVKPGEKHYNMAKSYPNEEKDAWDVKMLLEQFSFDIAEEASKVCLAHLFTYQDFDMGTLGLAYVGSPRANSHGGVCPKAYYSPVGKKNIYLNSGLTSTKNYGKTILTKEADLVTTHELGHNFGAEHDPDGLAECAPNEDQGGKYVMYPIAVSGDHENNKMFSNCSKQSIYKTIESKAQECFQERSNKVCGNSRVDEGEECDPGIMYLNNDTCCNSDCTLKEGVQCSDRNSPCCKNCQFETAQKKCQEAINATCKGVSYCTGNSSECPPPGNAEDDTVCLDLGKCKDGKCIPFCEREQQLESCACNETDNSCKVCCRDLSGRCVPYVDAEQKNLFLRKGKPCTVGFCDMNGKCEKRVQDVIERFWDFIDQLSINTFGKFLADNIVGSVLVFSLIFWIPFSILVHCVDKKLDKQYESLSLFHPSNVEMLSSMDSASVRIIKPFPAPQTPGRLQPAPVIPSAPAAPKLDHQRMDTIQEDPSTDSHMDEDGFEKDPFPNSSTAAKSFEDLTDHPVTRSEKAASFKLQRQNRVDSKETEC

[12] = growth inhibition of PfATP4-mutant resistant parasites – NITD609-resistant line, SYBR Green, dry powder, dose response (AID 1159571); format: functional, cell-based;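 further: parasites synchronized at ring stage by sorbitol before testing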
[13] = toxicity to human hepatoma HepG2 cells – cell-based, cherry-picked samples, cytotoxicity control, dose response (AID 1159577); format: functional
[14] = growth inhibition of yeast DHODH-expressing 3D7 parasites – SYBR Green, dry powder samples, dose response (AID 1159570); format: functional, cell-based;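 further: parasite growth measured after 72 hours of compound exposure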
[15] = toxicity to human HepG2 hepatoma cells – cell-based, plate reader, dry powder samples, cytotoxicity control, dose response (AID 1159569); format: functional;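 further: inhibitor potency with signal falling toward the positive control level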
[16] = P. falciparum Dd2 growth inhibitors, dose response, SYBR Green, cherry-picked samples (AID 1159567); format: functional, cell-based
[17] = Dd2 malaria parasite growth inhibition potency – SYBR Green, dry powder samples, dose response (AID 1159566); format: functional, cell-based;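 further: potency for growth inhibition with lower SYBR green DNA signal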
[18] = target: Metabotropic glutamate receptor 5 (Rattus norvegicus, UniProt P31424); assay: Identification of a glycine sulfonamide based non-MPEP site positive allosteric potentiator (PAM) of mGlu5 (calcium_assay).; format: functional
Chain of Metabotropic glutamate receptor 5 (P31424 whole entry): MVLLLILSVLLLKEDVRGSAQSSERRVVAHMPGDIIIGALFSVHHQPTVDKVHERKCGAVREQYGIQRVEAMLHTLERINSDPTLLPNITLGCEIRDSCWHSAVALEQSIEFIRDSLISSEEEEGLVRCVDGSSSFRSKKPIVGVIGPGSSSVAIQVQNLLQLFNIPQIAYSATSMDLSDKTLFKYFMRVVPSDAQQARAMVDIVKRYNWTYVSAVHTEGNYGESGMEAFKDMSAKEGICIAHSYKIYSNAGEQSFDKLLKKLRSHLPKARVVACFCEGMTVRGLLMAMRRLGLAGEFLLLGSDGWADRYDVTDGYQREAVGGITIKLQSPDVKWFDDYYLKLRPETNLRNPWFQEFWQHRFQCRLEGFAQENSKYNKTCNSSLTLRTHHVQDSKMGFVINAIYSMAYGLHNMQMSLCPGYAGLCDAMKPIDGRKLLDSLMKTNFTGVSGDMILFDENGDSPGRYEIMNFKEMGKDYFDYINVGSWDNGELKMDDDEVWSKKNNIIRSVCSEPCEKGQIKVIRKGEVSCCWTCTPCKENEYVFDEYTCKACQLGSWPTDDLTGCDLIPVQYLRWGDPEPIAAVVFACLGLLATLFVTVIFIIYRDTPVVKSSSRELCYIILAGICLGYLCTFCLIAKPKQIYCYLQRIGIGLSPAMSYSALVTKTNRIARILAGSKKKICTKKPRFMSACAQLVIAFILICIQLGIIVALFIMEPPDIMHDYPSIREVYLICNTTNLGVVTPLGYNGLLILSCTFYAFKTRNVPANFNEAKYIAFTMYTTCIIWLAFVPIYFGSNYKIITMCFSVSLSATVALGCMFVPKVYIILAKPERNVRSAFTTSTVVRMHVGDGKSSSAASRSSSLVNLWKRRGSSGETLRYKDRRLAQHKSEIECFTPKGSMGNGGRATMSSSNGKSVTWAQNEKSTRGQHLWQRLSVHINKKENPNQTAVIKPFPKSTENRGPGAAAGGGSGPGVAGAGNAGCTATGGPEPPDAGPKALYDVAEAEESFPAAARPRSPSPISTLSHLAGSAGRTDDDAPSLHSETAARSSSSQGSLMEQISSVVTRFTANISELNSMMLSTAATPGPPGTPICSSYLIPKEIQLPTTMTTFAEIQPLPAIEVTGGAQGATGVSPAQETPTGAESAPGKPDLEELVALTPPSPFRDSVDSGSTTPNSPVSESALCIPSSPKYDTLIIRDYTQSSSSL

[19] = HIV-1 Vif–A3G interaction blockers – biochemical, TR-FRET, GST-Vif 1-94, biotin-A3G peptide, dose response retest, primary screen (AID 1117319); format: functional;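 further: TR-FRET signal of purified GST-Vif binding a biotinylated A3G peptide; inhibitors lower the FRET signal by blocking Vif and A3G binding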
[20] = OVCAR-3 cell viability loss – plate reader, dry powder samples, PAX8 inhibitor project, dose response (AID 743044); format: functional, cell-based
[21] = PAX8-dependent cell viability loss – plate reader, dry powder, dose response (AID 743049); format: functional, cell-based
[22] = COV434 cell viability loss – plate reader, dry powder, SA7, cytotoxicity control for PAX8 inhibitor project, dose response (AID 743145); format: functional, cell-based
[23] = inhibitors acting on PAX2 in cells – cell-based, plate reader, dry powder samples, selectivity assay for PAX8 inhibitor project, dose response (AID 743048); format: functional;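 further: HEK293 cells carrying a WT1 promoter luciferase reporter driven by expressed Pax2; potency is for inhibition of Pax2 driven reporter signal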
[24] = PAX5 cellular inhibition readout – cell-based, plate reader, dry powder samples, selectivity assay for PAX8 inhibitor project, dose response (AID 743047); format: functional;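 further: HEK293 cells carrying a Pax5 driven CD19 promoter luciferase reporter; potency of inhibitors that lower reporter luminescence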
[25] = OV-90 cell viability loss – plate reader, dry powder, SA8, PAX8 inhibitor project, dose response (AID 743149); format: functional, cell-based
[26] = IGROV1 cell killing – plate reader, dry powder samples, PAX8 inhibitor project, dose response (AID 743043); format: functional, cell-based; conditions: IGROV-1
[27] = target: T1, Oxysterols receptor LXR-beta (Homo sapiens, UniProt P55055); assay: LXR agonists, Gal4 luciferase reporter, dose response, counter-screen for ssDAF-12 agonist project, cell-based, luminescence, HEK293, S. stercoralis campaign (AID 720737); format: functional; conditions: read-out: IC50 (the source's name)
T1 sequence (P55055 whole entry): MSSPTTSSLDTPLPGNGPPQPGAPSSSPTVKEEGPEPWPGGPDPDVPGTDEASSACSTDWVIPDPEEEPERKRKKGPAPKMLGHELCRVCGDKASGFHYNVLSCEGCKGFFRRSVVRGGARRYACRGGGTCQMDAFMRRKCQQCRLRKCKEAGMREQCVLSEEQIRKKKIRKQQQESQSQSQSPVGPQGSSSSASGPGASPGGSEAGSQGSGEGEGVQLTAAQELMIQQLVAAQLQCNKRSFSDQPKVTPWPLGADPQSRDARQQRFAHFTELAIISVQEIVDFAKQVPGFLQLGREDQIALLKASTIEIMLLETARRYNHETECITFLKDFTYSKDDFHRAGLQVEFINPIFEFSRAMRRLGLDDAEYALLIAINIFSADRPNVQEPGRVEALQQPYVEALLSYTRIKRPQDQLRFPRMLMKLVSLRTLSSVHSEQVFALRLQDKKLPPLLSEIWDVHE

[28] = Luminescence-based cell-based high throughput dose response assay to identify activators of the DAF-12 from the parasite S. stercoralis (ssDAF-12).; format: functional

## c1ccc2c(c1)c1c3n2CCNC3CCC1 (stereo unspecified)
[1]
  IC50: > 122 µM (inactive)

## COc1ccc(CN2Cc3cnnn3-c3ccccc3C2C#N)cc1 (stereo unspecified)
[2]
  AC50: > 52 µM (inactive)
[3]
  AC50: 27.1 µM (active)
[4]
  AC50: 12.7 µM (active)
[5]
  AC50: 25.8 µM (active)
[6]
  IC50: > 64.7 µM (inactive)
[7]
  AC50: 20.6 µM (active)
Melanocortin receptor 4
  IC50: 26.3 µM (inactive)

## COC(=O)C1=CN(C)C=C(C(=O)OC)C1c1ccccc1Cl
cells
  AC50: > 52 µM (inactive)

## COC(=O)c1c(NC(C)=O)sc(C(=O)Nc2ccccc2F)c1C
[8]
  AC50: 26 µM (active)

## CCN1C(=O)/C(=C2/C=Cc3ccccc3N2CC)SC1=S
[1]
  IC50: 94.1 µM (inactive)
Nonstructural protein 1
  IC50: 9.45 µM (active)

## C=CCC1(O)CCCN(C(=O)c2ccc(C#Cc3ccc(OC)cc3)cc2)C1 (stereo unspecified)
[9]
  IC50: 0.783 µM

## O=C1CC(Nc2ccc3ccccc3c2)C(=O)N1Cc1ccccc1 (stereo unspecified)
[10]
  IC50: > 69.5 µM (inactive)
[11]
  IC50: > 69.5 µM (inactive)

## Cc1ccc(-c2nnc(Nc3ccccc3)o2)cc1
[2]
  AC50: > 52 µM (inactive)
[3]
  AC50: 18.6 µM (active)
[4]
  AC50: > 52 µM (inactive)
[5]
  AC50: 25.6 µM (active)

## C[C@@H]1CN([C@@H](C)CO)C(=O)c2c(c3ccccc3n2C)-c2ccccc2CO[C@@H]1CN(C)C(=O)Nc1ccc(-c2ccccc2)cc1
[12]
  AC50: 1.46 µM (active)
[13]
  AC50: > 42 µM (inactive)
[14]
  AC50: 2.36 µM (active)
[15]
  AC50: > 100 µM (inactive)
[16]
  AC50: 1.93 µM (active)
[17]
  AC50: 1.48 µM (active)

## COc1ccccc1NC(=O)Cn1nc(-c2ccc(Cl)cc2)c2ccccc2c1=O
[10]
  IC50: 16.3 µM (inactive)
[11]
  IC50: > 69.5 µM (inactive)

## CS(=O)(=O)N(CC(=O)Nc1ccc(F)nc1)c1ccccc1Cl
[18]
  EC50: 4.4 µM

## Cc1ccc(-n2c(Cc3cccn3C)nnc2SCC(=O)Nc2nnc(C)s2)cc1
[19]
  IC50: > 100 µM (active)

## O=C(Nc1ccc(NC(=O)c2ccco2)nc1)c1ccco1
[3]
  AC50: 6.67 µM (active)
[5]
  AC50: 8.62 µM (active)
[7]
  AC50: > 52 µM (inactive)

## COc1ccccc1C#Cc1ccc([C@H]2[C@@H](CO)N(C(=O)C3CCCC3)[C@H]2C#N)cc1
[20]
  AC50: 48.3 µM (active)
[21]
  AC50: 40.7 µM (active)
[22]
  AC50: > 70 µM (inactive)
[23]
  AC50: 27.6 µM (active)
[24]
  AC50: 23 µM (active)
[25]
  AC50: > 70 µM (inactive)
[26]
  AC50: 37.4 µM (active)

## COc1ccc(NC(=O)c2cc3ccccc3cc2OC)cc1
[27]
  EC50: > 67.5 µM (inactive)
[28]
  IC50: > 67.5 µM (inactive)

From ChEMBL document CHEMBL1201862, “PubChem BioAssay data set” (2004)
